From paper PMC11243058, “Identification of Novel Isatin Derivative Bearing a Nitrofuran Moiety as Potent Multi-Isoform Aldehyde Dehydrogenase Inhibitor” (Molecules, 2024)
Like-named read-outs stand apart in the source and are kept apart here.

What was measured:
[1] = test system: UACC 903 cells; test: ALDEFLUOR assay; format: cell-based, human; settings: UACC 903 melanoma cells, 1 µM, 24 h
Protocol: Aldehyde dehydrogenase (ALDH) activity within human melanoma cells was assessed by utilizing the ALDEFLUOR Kit from […] Technologies. […] Post-treatment, cells were washed with PBS, and the ALDEFLUOR assay was performed following the manufacturer’s protocol, employing DEAB as a negative control. ALDH percentages were determined using a BD LSRFortessa flow cytometer (San Jose, CA, USA).

[2] = test system: HCT-116; test: Cell viability assay (MTS), HCT-116; format: cell-based, human; settings: Homo sapiens, HCT-116, colon cancer cells, 48 h, mean ± SD
Protocol: (§1) Five thousand cells/well were plated in 96-well plates in growth media and left for attachment for 24 h. The cells were then treated with the respective compounds using varying concentrations for 48 h. At the end of the treatment duration, a solution of MTS [3-(4,5-dimethylthiazol-2-yl)-5-(3-carboxymethoxyphenyl)-2-(4-sulfophenyl)-2H-tetrazolium] and an electron coupling reagent, PES (phenazine ethosulfate) (Promega, Madison, WI, USA) was added to the cells. Then, 15 μL of MTS reagent was added to each well, and the absorbance was assessed at 490 nm with a microplate reader (Dynex Technologies, MRX Revelation; Chantilly, VA, USA) after 1 h incubation with MTS. The data were recorded, and the IC50 value was calculated using non-linear curve regression analysis (Graph pad V8.0, CA, USA).

[3] = test system: SKOV-3; test: Cell viability assay (MTS), SKOV-3; format: cell-based, human; settings: Homo sapiens, SK-OV-3, ovarian cancer cells, 48 h, mean ± SD
Protocol: as §1

[4] = test system: HCT-116 cells; test: ROS generation (Muse Oxidative Stress Kit); format: cell-based, human; settings: HCT-116, 3 µM, 24 h, relative to KS100
Protocol: The Muse® Oxidative Stress Kit (Luminex Corp., Austin, TX, USA) was used to assess the generation of ROS in the HCT-116 cells after the treatment with the compounds. In a 6-well plate, the cells were seeded at a density of 1 × 10^5 cells/well. After 24 h incubation, the cells were treated with the respective compounds with or without 5 mM of N-acetylcysteine (NAC) in the serum-enriched medium for 24 h. At the end of the treatment duration, the cells were harvested, and 10 μL of cells in suspension was added into each tube. Furthermore, 190 μL of Muse Oxidative Stress Reagent working solution was added to each tube. The samples were mixed thoroughly by pipetting up and down or vortexing at medium speed for 3 to 5 s. The samples were incubated for 30 min at 37 °C and analyzed using Muse Cell Analyzer.

[5] = test system: HEK-293; test: Cell viability assay (MTS), HEK-293; format: cell-based; settings: HEK293, human embryonic kidney cells, 48 h, mean ± SD
Protocol: as §1

[6] = Cell viability assay (MTS), statements over the cell line panel; format: cell-based, human; settings: human; range or statement over all tested cell lines, 48 h MTS; read-out: IC50 / cytotoxicity against the tested cell lines
Protocol: as §1

[7] = test system: SKOV-3, MiaPaCa-2, HCT-116, HEK-293, and FHC cell lines; test: as above; format: cell-based, human; settings: for IC50: Homo sapiens
Protocol: as §1

[8] = test system: FHC; test: Cell viability assay (MTS), FHC; format: cell-based; settings: FHC, normal fetal human cells, 48 h, mean ± SD
Protocol: as §1

[9] = test system: γH2AX in HCT-116 cells; test: Western blot for γH2AX; format: cell-based, human; settings: HCT-116, 3 µM, 12 h
Protocol: Western blotting was performed as described previously. The antibodies used were procured from Cell Signaling Technologies. […] The protein was transferred to a 0.45 µm pore membrane (Immobilon®-P PVDF Membrane, EMD Millipore, USA). The membranes were further treated with the respective primary and secondary antibodies. The Western blot images are representative of three independent experiments.

[10] = test system: MiaPaCa-2; test: Cell viability assay (MTS), MiaPaCa-2; format: cell-based, human; settings: Homo sapiens, MIA PaCa-2, pancreatic cancer cells, 48 h, mean ± SD
Protocol: as §1

[11] = test system: HCT-116 cells; test: Apoptosis assay, Annexin V/7-AAD; format: cell-based, human; settings: HCT-116, 3 µM, 48 h, relative to KS100
Protocol: (§2) The apoptosis assays were carried out following the manufacturer’s instructions using the Muse Caspase-3/7 assay kit and Annexin V/7-AAD kit (Luminex Corp., TX, US). In a 6-well plate, the cells were seeded at a density of 1X105 cells/well. The cells were treated with 3 µM of the compounds following a 24 h incubation period. The cells were cultured for 48 h (Annexin V/7-AAD) as opposed to 24 h (Caspase-3/7 test). Cell Dissociation buffer, an enzyme-free solution, was used to harvest the cells at the end of the treatment period. The samples were then given the appropriate dye treatments following the manufacturer’s instructions.

[12] = molecular target: T1, ALDH1A1 (Homo sapiens, UniProt P00352); test: ALDH isoform-specific enzyme inhibition assay, ALDH1A1; format: biochemical; settings: 500 nM, Acetaldehyde (Substrate)
T1 construct: purchased R&D systems
T1 sequence (P00352 1-501): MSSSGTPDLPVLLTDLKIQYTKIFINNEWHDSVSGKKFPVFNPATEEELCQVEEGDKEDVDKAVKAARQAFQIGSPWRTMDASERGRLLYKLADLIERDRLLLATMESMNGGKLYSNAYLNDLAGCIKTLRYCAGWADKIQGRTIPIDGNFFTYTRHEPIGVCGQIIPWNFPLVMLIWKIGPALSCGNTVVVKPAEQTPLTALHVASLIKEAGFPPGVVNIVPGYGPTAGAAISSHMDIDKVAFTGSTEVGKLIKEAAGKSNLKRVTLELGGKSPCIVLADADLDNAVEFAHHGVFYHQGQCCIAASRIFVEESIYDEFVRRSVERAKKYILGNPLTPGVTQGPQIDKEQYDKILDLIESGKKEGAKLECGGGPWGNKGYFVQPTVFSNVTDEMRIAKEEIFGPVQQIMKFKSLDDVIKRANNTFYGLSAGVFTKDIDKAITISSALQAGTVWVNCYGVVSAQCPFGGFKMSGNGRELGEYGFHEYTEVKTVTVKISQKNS
Protocol: (§3) ALDH1A1, ALDH3A1, and ALDH1A3 enzyme inhibition assays were performed as reported previously. Briefly, 500 ng/100 uL of ALDH1A1, ALDH3A1, and ALDH1A3 were treated with 500 nM concentration of the tested compounds and incubated for 15 min followed by the addition of reaction mixture (substrate + Substrate mixture). […] The absorbance was measured at 450 nm. [Absorbance Control–Absorbance treated/Absorbance Control]100 was used to compute the percentage of inhibition.

[13] = molecular target: T2, ALDH3A1 (Homo sapiens, UniProt P30838); test: ALDH isoform-specific enzyme inhibition assay, ALDH3A1; format: biochemical; settings: 500 nM, Acetaldehyde (Substrate)
T2 construct: purchased R&D systems
T2 sequence (P30838 1-453): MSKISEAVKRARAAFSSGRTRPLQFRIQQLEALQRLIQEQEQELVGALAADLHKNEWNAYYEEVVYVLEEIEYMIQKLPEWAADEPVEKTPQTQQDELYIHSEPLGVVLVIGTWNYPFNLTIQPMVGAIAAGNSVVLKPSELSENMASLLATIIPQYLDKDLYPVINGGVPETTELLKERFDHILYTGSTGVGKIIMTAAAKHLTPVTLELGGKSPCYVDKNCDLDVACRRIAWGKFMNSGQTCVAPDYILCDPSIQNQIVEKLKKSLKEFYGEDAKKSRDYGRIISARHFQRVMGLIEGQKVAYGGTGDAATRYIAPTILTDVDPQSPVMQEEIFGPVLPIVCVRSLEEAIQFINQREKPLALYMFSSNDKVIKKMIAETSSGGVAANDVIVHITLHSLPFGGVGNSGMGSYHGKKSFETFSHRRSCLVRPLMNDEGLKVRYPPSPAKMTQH
Protocol: as §3

[14] = test system: HCT-116 cells; test: Apoptosis assay, Muse Caspase-3/7 7-AAD; format: cell-based, human; settings: HCT-116, 3 µM, 24 h, relative to KS100
Protocol: as §2

[15] = test system: HNSCC xenograft; settings: injected intratumorally ref 29; cited from earlier work

| SMILES | inhibition of overall ALDH activity (ALDEFLUOR) [1] | IC50 [2] [µM] | IC50 [3] [µM] | more ROS than KS100 [4] [%] | IC50 [5] [µM] | IC50 at 48 h [6] [µM] | IC50 ([7]; HEK293, FHC and HEK-293, 48 h MTS, read-out: IC50 in normal and embryonic kidney cells) [µM] | IC50 ([7]; Pancreatic cancer cell, ovarian, colon, and pancreatic cancer cells, 48 h MTS, read-out: IC50 in cancer cell lines) [µM] | greater effectiveness than KS100 in targeting cancer cells ([7]; from MTS IC50 values) [times] | IC50 [8] [µM] | γH2AX protein levels [9] | IC50 [10] [µM] | more apoptotic cell population than KS100, Annexin V/7-AAD [11] | inhibition at 0.5 µM [12] [%] | inhibition at 0.5 µM [13] [%] | more apoptotic cell population than KS100, caspase-3/7 7-AAD [14] | melting point [°C] | IC50 / cytotoxicity against the tested cell lines ([7]; range or statement over all tested cell lines, 48 h MTS) | IC50 ([7]; Pancreatic cancer cell, 48 h, read-out: IC50 in cancer cell lines) [µM] | reduction of HNSCC xenograft development [15] [%] |
| --- | --- | --- | --- | --- | --- | --- | --- | --- | --- | --- | --- | --- | --- | --- | --- | --- | --- | --- | --- | --- |
| O=C(OCc1ccc(CN2C(=O)C(=O)c3cc(Br)cc(Br)c32)cc1)c1ccc([N+](=O)[O-])o1 [Compound 3, 4-((5,7-Dibromo-2,3-dioxoindolin-1-yl)methyl)benzyl 5-nitrofuran-2-carboxylate] | ~ 2.5 fold | 2.1 ± 0.1 | 2.2 ± 0.2 | 34.7 | 8.7 ± 1.1 | 2.1 to 6.8 | 7.1 to 8.7 | 2.1 to 3.8 | 0.5 to 2 | 7.1 ± 0.8 | increased γH2AX protein levels | 3.8 ± 0.4 | ~ 13% | 51.32 ± 0.01 | 51.87 ± 0.05 | ~ 12.8% |  |  |  |  |
| O=C(OCc1ccc(CN2C(=O)C(=O)c3cc(Br)cc(Br)c32)cc1)c1ccco1 [Compound 4, 4-((5,7-Dibromo-2,3-dioxoindolin-1-yl)methyl)benzyl furan-2-carboxylate] |  | 6.1 ± 1.2 | 7.2 ± 1.3 |  | 5.3 ± 1.4 |  |  |  |  | 6.7 ± 1.9 |  | 7.1 ± 0.8 |  | 28.26 ± 0.01 | 22.82 ± 0.05 |  | 132 to 134 |  |  |  |
| O=Cc1ccc(CN2C(=O)C(=O)c3cc(Br)cc(Br)c32)cc1 [Compound 5, 4-((5,7-Dibromo-2,3-dioxoindolin-1-yl)methyl)benzaldehyde] |  | 8.8 ± 2.3 | 8.2 ± 1.1 |  | 7.5 ± 1.8 |  |  |  |  | 12.9 ± 3.3 |  | 5.4 ± 0.9 |  | 24.82 ± 0.01 | 39.58 ± 0.05 |  | 205 to 207 | less cytotoxic than KS100 |  |  |
| COC(=O)/C=C/c1ccc(CN2C(=O)C(=O)c3cc(Br)cc(Br)c32)cc1 [Compound 2, Methyl (E)-3-(4-((5,7-dibromo-2,3-dioxoindolin-1-yl)methyl)phenyl)acrylate] |  | 19.6 ± 3.3 | 21.8 ± 2.4 |  | 24.1 ± 6.8 | > 20 |  |  |  | 22.9 ± 3.3 |  | 22.3 ± 5.1 |  |  |  |  |  |  |  |  |
| Br.N=C(N)SCc1ccc(Cn2nc(Br)c3cc(C(F)(F)F)ccc32)cc1 [Compound 16, 4-((3-Bromo-5-(trifluoromethyl)-1H-indazol-1-yl)methyl)benzyl carbamimidothioate hydrobromide] |  | 4.9 ± 1.1 | 4 ± 1.3 |  | 5.7 ± 1.3 | 2.1 to 6.8 |  |  |  | 7.1 ± 1.1 |  | 6.8 ± 1.4 |  | 9.46 ± 0.01 | -9.33 ± 0.04 |  | 213 to 215 |  |  |  |
| Br.C=CCNC(=N)SCc1ccc(CN2C(=O)C(=O)c3cc(Br)cc(Br)c32)cc1 [Compound 1, 4-((5,7-Dibromo-2,3-dioxoindolin-1-yl)methyl)benzyl allylcarbamimidothioate hydrobromide] |  | 4.7 ± 1.1 | 4.8 ± 0.2 |  | 4.1 ± 0.8 | 2.1 to 6.8 |  |  |  | 2.9 ± 0.3 |  | 2.4 ± 1.1 |  | 35.37 ± 0.01 | 30.59 ± 0.02 |  | 118 to 120 |  |  |  |
| Br.N=C(N)SCc1ccc(Cn2nc(Br)c3cccc(C(F)(F)F)c32)cc1 [Compound 17, 4-((3-Bromo-7-(trifluoromethyl)-1H-indazol-1-yl)methyl)benzyl carbamimidothioate hydrobromide] |  | > 50 | > 50 |  | > 50 |  |  |  |  | > 50 |  | > 50 |  | 10.99 ± 0.0015 | -25.33 ± 0.05 |  | 235 to 237 |  | > 50 |  |
| CC(C)CCn1c(CN2CCN(C(=O)C3CC3)CC2)nc2c1c(=O)n(C)c(=O)n2C [NCT-501] |  |  |  |  |  |  |  |  |  |  |  |  |  |  |  |  |  |  |  | 78 |
